Where “and” joins values, the source holds several entries; their conditions need not be identical. Equal values may be shown once. Read-outs that look alike come from different tables or passages of the source.
Columns and labels:
[1] = tested on: LS174T colon carcinoma human xenografts; experiment: Efficacy after repeated iv bolus, LS174T xenograft; details: for TGI [% (day)]: day 28
Description: FIG. 2. Efficacy study of PhAc-ALGP-Dox in comparison with free Doxorubicin in NMRI nude mice bearing LS174T colon carcinoma human xenografts. Drugs or controls were administered by the i.v. route on day 0 and day 7. The mice receiving a constant volume (10 μL/g) of either saline (-●-;-◯-) or of the different dosing solutions: PhAc-ALGP-Dox 140 μmolKg (-▴-) and 160 μmol/kg (-×-); Dox 15 μmol/kg (-♦-). Results represent the mean body weight and tumor volume evolution±SEM (n=4).
(§1) The anti-tumor activity of doxorubicin and PhAc-ALGP-Dox was tested in models of athymic mice (nude/nude NMRI) carrying ectopic xenografts of human LS-174T colon carcinoma or MX-1 mammary carcinoma.
(§2) LS174T and MX-1 tumors were established by a subcutaneous implantation of cells (3×10^6 and 10^7 cells injected respectively) in the right flank of 6 weeks old female NMRI nude mice (Harlan). […] The day of the first injection animals were randomly assigned to groups of 4 animals. […] Compounds were delivered by bolus intravenous injection (i.v.) in the lateral tail vein at 10 μl/g. During the course of the experiment, clinical signs, body weight and tumor volume were controlled twice a week. Results are presented as the evolution of mean tumor volume as a function of time. Optimal T/C (ratio of mean tumor volume of treated versus control mice) values were used as a measure of treatment efficacy.

[2] = tested on: MX-1 mammary carcinoma human xenografts; experiment: Efficacy after repeated iv bolus, MX-1 xenograft; format: in vivo, NMRI nude mice; details: day 29
Description: FIG. 3. […] Results represent the mean body weight and tumor volume evolution±SEM (n=4).
as §1, §2

[3] = tested on: LoVo colon carcinoma human xenografts; experiment: Efficacy, similar study, ip 2Q1D5×2W (Table 9)
Description: The efficacy of PhAc-ALGP-Dox was assessed using athymic mice (nude/nude NMRI) carrying ectopic xenograft of human LoVo colon carcinoma or of MX-1 mammary carcinoma in comparison with free Doxorubicin. Tumors were established by a subcutaneous implantation of cells (10^7 cells) in the right flank of 6 weeks old female NMRI nude mice (Harlan). Treatments were administered when the tumors reached a size of 150-200 mm^3 (measured using a caliper and calculated with the following formula: […]). Animals were randomly assigned to groups of 4 to-6 animals. […] Compounds were delivered by bolus intraperitoneal injection (ip) at 10 μl/g. During the course of the experiment, clinical signs, body weight and tumor volume were controlled twice a week. Results are presented as the evolution of mean tumor volume as a function of time. Optimal T/C (ratio of mean tumor volume of treated versus control mice) values and TGD (tumor growth delay in reaching 1000 mm^3) were used as a measure of treatment efficacy. […] A statistical analysis was performed at day 22 using the Mann Whitney t test of the Graph Pad Prism 5.0 software.

[4] = tested on: B16-F10 murine melanoma cells; format: in vivo, C57BL6 mice
Description: FIG. 11. Evaluation of PhAc-ALGP-Dox efficacy in comparison with Doxorubicin in the B16-F10 lung metastatic melanoma model. Graph on the left side represents quantification of melanin of lung metastasis at day 14 after injection of B16F10 tumor cells. Graph on the right side show the survival curves.
The efficacy of PhAc-ALGP-Dox was tested in the well described B16-F10 lung metastatic melanoma model. For that purpose, […] B16-F10 murine melanoma cells were injected in the lateral vein of C57BL6 mice. Treatments started three days after cells injection. Animal received twice a day (at 5-6 h interval) for 5 consecutive days intraperitoneal injections (total 10 injections/mouse) of saline or of Doxorubicin at 2 and 3.5 μmol/kg or of PhAc-ALGP-Dox at 50 μmol/kg. Five mice per group were sacrificed at day 14 after cells injection. Lungs were collected and processed for melanin quantification (Molecular Pharmacology, 74: 1576-1586, 2008). Survival was determined by observation of the remaining mice.

[5] = tested on: orthotopic HCT116 human colon tumors; experiment: Orthotopic HCT116 colon carcinoma tumor model; format: in vivo, SCID mice
Description: (§3) FIG. 14. Evaluation of the antitumor effect of PhAc-ALGP-dox in SCID mice bearing orthotopic HCT116 human colon tumors. SCID mice were injected orthotopically (in the caecum) with human HCT116 colon tumor cells. One group was treated with saline while groups 2 and 3 received 10 intraperitoneal injections (2Q1D5) of 35 and 50 μmol/kg of PhAc-ALGP-doxorubicin. Primary tumor weights were recorded on day 34 post cell inoculation.
as §3, with “15.” for “14.”, “antimetastatic” for “antitumor”, “effect (in liver)” for “effect”, “Liver metastases” for “Primary tumor weights”
HCT116 cells were subcutaneously injected into SCID mice. Once xenografts were established, they were excised and orthotopically implanted into the ceacum of other female γ-irradiated SCID mice using microsurgical techniques. On day 12 after the cancer cells injection, the mice were randomized in four groups of 16. […] On day 34 after injection into the caecum of colonic cancer cells the animals were sacrificed, the number of metastases was counted macroscopically and the primary tumors weighted.

in vivo = details: female, OF-1, mouse, ip, 92 umol/kg
Description: (§4) Time evolution of blood concentration of PhAc-ALGP-Dox and its metabolites (A) or of Doxorubicin (B) after intraperitoneal injection to OF-1 female wild type mice at the equimolar dose of 92 μmol/kg. Results represent the mean concentration±SD (n=3).
(§5) Pharmacokinetic tissue distribution studies were performed using OF-1 mice. Doxorubicin and PhAc-ALGP-Dox were dissolved in saline at the dose of 9.2 mM and administered to mice by intraperitoneal route (10 μL/g, 6 mice per group). At different time points after drug administration (5 min, 30 min, 1 h, 4 h, and 24 h), blood samples were collected from the lateral tail vein of three mice using EDTA-coated microtubes (Starsted). After 24 h, 3 mice per group were sacrificed by cervical dislocation and hearts were collected. They were incised and rinsed carefully in phosphate buffer saline (to eliminate blood in the cardiac cavities), dried on paper and frozen in liquid nitrogen. They were stored until analysis. The hearts were homogenized with an Ultraturrax homogenizer in 1.5 mL water. The protein concentration was measured using the microBCA protein assay (Pierce). The drug tissue quantification was made by HPLC after extraction: 150 μL of acetonitrile was added to the 50 μL samples. Samples were vortexed and centrifuged for 10 min at 13 000 rpm at room temperature. Supernatant was collected. Samples were buffered by addition of 200 mM formiate buffer pH 4.5 (1 V sample supernatant+3 V buffer) before HPLC analysis (fluo detection ex=235 nm em=560 nm).

[6] = Pharmacokinetics and heart quantification after single ip injection; details: for Dox concentration in heart after 24 h: ip 92 μmol/kg of the labelled drug, ± SD
Description: as §4, §5

## COc1cccc2c1C(=O)c1c(O)c3c(c(O)c1C2=O)C[C@@](O)(C(=O)CO)C[C@@H]3O[C@H]1C[C@H](N)[C@H](O)[C@H](C)O1 [Doxorubicin, reference compound]
[1]; 15 μmol/kg iv day 0 and 7
  TGI [% (day)]: 55 (28) %
[2]; 8 μmol/kg iv day 0, 3, 6, 9
  TGI [% (day)]: 65 (29) %
[3]; 1 μmol/kg ip 2Q1D5×2W
  TGD: 5 days
  mortality: one dead mouse was found at day 29
[3]; 1 μmol/kg ip 2Q1D5×2W, day 29
  TGI [% (day)]: 44(29), %
[3]; 1.5 μmol/kg ip 2Q1D5×2W
  TGD: 9 days
[3]; 1.5 μmol/kg ip 2Q1D5×2W, day 29, n = 1
  TGI [% (day)]: 65(29), %
[4]; 2 μmol/kg ip 2Q1D5
  median survival: 24 days
[4]; 2 μmol/kg ip 2Q1D5, day 14
  amount of melanin in lung homogenate: 183 mg/mL
[4]; 3.5 μmol/kg ip 2Q1D5
  median survival: 28 days
[4]; 3.5 μmol/kg ip 2Q1D5, day 14
  amount of melanin in lung homogenate: 53 mg/mL
[5]; 2 μmol/kg ip 2Q1D5, SCID mice
  mortality: all animals died within 10 days
In vivo
  AUC: 70.3 µM·h
[6]; ip 92 μmol/kg
  percentage of the injected dose reaching the blood compartment in the first five minutes: about 2.5%
[6]
  Dox concentration in heart after 24 h: 253 ± 60 pmol/mg protein

## COc1cccc2c1C(=O)c1c(O)c3c(c(O)c1C2=O)CC(O)(C(=O)CO)CC3OC1CC(NC(=O)C2CCCN2C(=O)CNC(=O)C(CC(C)C)NC(=O)C(C)NC(=O)CP(=O)(O)O)C(O)C(C)O1 (stereo not drawn) [PhAc-ALGP-Dox, PhAc-ALGP-doxorubicin]
[1]; 140 μmol/kg and 160 μmol/kg iv, twice
  body weight loss (maximum): ≤ 10%
[1]; 140 μmol/kg iv day 0 and 7
  TGI [% (day)]: 79 (28) %
[1]; 160 μmol/kg iv day 0 and 7
  TGI [% (day)]: 81 (28) %
[2]; 100 μmol/kg iv day 0, 3, 6, 9
  TGI [% (day)]: 60 (29) %
[3]; 25 μmol/kg ip 2Q1D5×2W
  TGD: 9 days
[3]; 25 μmol/kg ip 2Q1D5×2W, day 29
  TGI [% (day)]: 54(29), %
[3]; 35 μmol/kg ip 2Q1D5×2W
  TGD: 9 days
[3]; 35 μmol/kg ip 2Q1D5×2W, day 29
  TGI [% (day)]: 53(29), %
[3]; 50 μmol/kg ip 2Q1D5×2W
  TGD: 22 days
[3]; 50 μmol/kg ip 2Q1D5×2W, day 9
  maximum body weight loss: 13%
[3]; 50 μmol/kg ip 2Q1D5×2W, day 29
  TGI [% (day)]: 73% and 73(29), %
[4]; 50 μmol/kg ip 2Q1D5
  median survival: 36 days
[4]; 50 μmol/kg ip 2Q1D5, day 14
  amount of melanin in lung homogenate: 16 mg/mL
[5]; 30 μmol/kg, day 34
  number of hepatic metastases: 24
  primary tumor weight: 0.69 g
[5]; 35 μmol/kg ip 2Q1D5, groups of 16
  mice surviving 34 days: 12 mice
[5]; 50 μmol/kg ip 2Q1D5, groups of 16
  mice surviving 34 days: 9 mice
[5]; 50 μmol/kg, day 34
  mean number of hepatic metastases: 1.78
  primary tumor weight: 0.44 g
In vivo
  AUC: 44.2 µM·h
[6]; ip 92 μmol/kg
  percentage of the injected dose reaching the blood compartment in the first five minutes: about 1%
  time after which the conjugate was no longer detected in blood: 4 h
[6]; ip 92 μmol/kg equimolar, 24 h
  Doxorubicin cardiac accumulation versus Doxorubicin injection (times less): 19 times
[6]
  Dox concentration in heart after 24 h: 13 ± 3 pmol/mg protein

— US10076576B2, “Minimally toxic prodrugs” (priority 2012, dated 2018)
